Measured values taken from patent US8426406B2, “Glucocorticoid receptor agonist comprising 2,2,4-trimethyl-6-phenyl-1,2-dihydroquinoline derivatives having substituted oxy group” (Santen Pharmaceutical Co., Ltd., priority 2008, dated 2013).

Key:
[1] = test system: choroidal neovascularization (CNV) model in rats; assay: Evaluation test for inhibitory effect of choroidal neovascularization (laser induced CNV model in rats); format: in vivo; details: Brown Norway rats, 1% (w/v) suspension eye drops four times a day or 20 mg/mL subconjunctival injection (route not given), vs vehicle, mean of 7-8 eyes in 4 rats
Protocol: The choroidal neovascularization (CNV) model in rats is known as one of the popular methods for evaluating the CNV inhibitory effect of drugs. This method is reported in Graefe's Arch. Cli. Exp. Ophthalmol., 235, 313-319 (1997). According to this method, the CNV examinations were performed to evaluate the CNV inhibitory effect of test compounds by comparing the incidence rates of CNV in vehicle group (control group) with test compound-treated groups.
For eye drop administration, a 1% (w/v) test compound suspension was prepared by adding 0.5% polysorbate 80/saline to the test compound. For subconjunctival injection, a 20 mg/mL test compound suspension was prepared by adding 0.5% hydrogenated castor oil/saline to the test compound.
1) Brown Norway male rats (7-8 weeks, 140-240 g) were anesthetized with intramuscular injection (1 mL/kg) of the mixed solution (5% ketamine HCl: 2% xylazine HCl=7:1).
2) After mydriasis using tropicamide phenylephrine hydrochloride eye drops (trade name Mydrin P), laser photocoagulation of bruch's membrane in rats was performed with krypton laser photocoagulation machine. Laser irradiation was performed at 8-9 points per eye avoiding thick retinal blood vessels in ocular fundus and focusing on the depth of retina. The conditions were 100 μm spot size, 100 mW power, 0.1 second duration.
3) After laser photocoagulation, photographs of ocular fundus were taken and the laser photocoagulation (laser irradiation) points were confirmed.
1) In case of eye drops administration, a test compound suspension was administrated four times a day from laser irradiation day (the 1st day) to the 8th day. In case of subconjunctival injection, a 50 μL test compound suspension was injected into conjunctivae just after laser irradiation.
2) In vehicle group (control group), 0.5% polysorbate 80/saline or 0.5% hydrogenated castor oil/saline was used instead of a test compound suspension. And the test was performed according to the method 1).
1) 7 days after laser irradiation, 0.1 mL of 10% fluorescein was injected into rat tail vein and fluorescein angiography was performed.
2) When the fluorescent leakage was not detected in the fluorescent angiography, the spot was judged to be a negative spot. When the fluorescent leakage was detected, the spot was judged to be a positive spot. When the fluorescent leakage was detected as a little leakage, two spots were counted as one positive spot.
3) The neovascular incidence rate was calculated according to the equation 1. According to the equation 2, the ratio of neovascular incidence rate in test compound group to vehicle group was calculated. Neovascular incidence rate(%)=(Positive spots/all spots)×100 (Equation 1) Angiogenic inhibition ratio in test compound group(%)=(1−Ax/Ao)×100 (Equation 2)
Ao: Neovascular incidence rate in vehicle group (control group)
Ax: Neovascular incidence rate in test compound group

[2] = test system: IL-6 production induced by lipopolysaccharide (LPS) in human corneal epithelial cells; assay: Evaluation test for GR agonist activity: inhibition of LPS-induced IL-6 production in human corneal epithelial cells (HCE-T); format: cell-based; details: Corneal epithelial cell, 10 μL of 100 μM test compound solution per well, 4 hours incubation, efficacy relative to DEX
Method in brief: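 SV40-immortalized HCE-T cells were treated with test compound (100 μM solution, stock before dilution into well) plus LPS (1 μg/mL solution, likewise pre-dilution) for 4 hours in 10% FBS-DMEM/F12. IL-6 in supernatants was measured by HTRF. Inhibition was calculated relative to LPS-plus-DMSO and no-LPS controls, and efficacy was expressed as % of DEX inhibition.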

Row | Compound | Angiogenic inhibition ratio (%) [1] [%] | Emax [2] [%]
1 | COc1ccc(OC(=O)c2cccnc2)cc1-c1ccc2c(c1COc1cc(F)ccc1C)C(C)=CC(C)(C)N2 [Compound 1-19, 5-(5-Fluoro-2-methylphenoxymethyl)-6-[2-methoxy-5-(pyridin-3-ylcarbonyloxy)phenyl]-2,2,4-trimethyl-1,2-dihydroquinoline] | 30 | 78
2 | COc1ccc([N+](=O)[O-])cc1OCc1c(-c2ccc(OS(=O)(=O)C3CC3)cc2OC)ccc2c1C(C)=CC(C)(C)N2 [Compound 4-8, 6-(4-Cyclopropylsulfonyloxy-2-methoxyphenyl)-5-(2-methoxy-5-nitrophenoxymethyl)-2,2,4-trimethyl-1,2-dihydroquinoline] | 26 | 78
3 | COc1cc(OC(=O)c2ccoc2)ccc1-c1ccc2c(c1COc1cc(F)ccc1C)C(C)=CC(C)(C)N2 [Compound 1-25, 5-(5-Fluoro-2-methylphenoxymethyl)-6-[4-(furan-3-ylcarbonyloxy)-2-methoxyphenyl]-2,2,4-trimethyl-1,2-dihydroquinoline] | 50 | 83
4 | COc1cc(OC(=O)c2ccncc2)ccc1-c1ccc2c(c1COc1cc(F)ccc1C)C(C)=CC(C)(C)N2 [Compound 1-33, 5-(5-Fluoro-2-methylphenoxymethyl)-6-[2-methoxy-4-(pyridin-4-ylcarbonyloxy)phenyl]-2,2,4-trimethyl-1,2-dihydroquinoline] | 29 | 82
5 | COc1ccccc1NCc1c(-c2ccc(OC(=O)N3CCOCC3)cc2OC)ccc2c1C(C)=CC(C)(C)N2 [Compound 6-35, 6-[2-Methoxy-4-(morpholin-4-ylcarbonyloxy)phenyl]-5-(2-methoxyphenylaminomethyl)-2,2,4-trimethyl-1,2-dihydroquinoline] | 26 | 87
6 | COc1cc(OC(=O)c2cccnc2C)ccc1-c1ccc2c(c1COc1cc(F)ccc1C)C(C)=CC(C)(C)N2 [Compound 1-49, 5-(5-Fluoro-2-methylphenoxymethyl)-6-[2-methoxy-4-(2-methylpyridin-3-ylcarbonyloxy)phenyl]-2,2,4-trimethyl-1,2-dihydroquinoline] | 23 | 96
7 | COc1cc(OC(=O)N(C)C)ccc1-c1ccc2c(c1COc1cc(F)ccc1C)C(C)=CC(C)(C)N2 [Compound 6-3, 6-(4-Dimethylaminocarbonyloxy-2-methoxyphenyl)-5-(5-fluoro-2-methylphenoxymethyl)-2,2,4-trimethyl-1,2-dihydroquinoline] | 38 | 83
8 | COc1cc(OC(=O)N2CCOCC2)ccc1-c1ccc2c(c1COc1cc(F)ccc1C)C(C)=CC(C)(C)N2 [Compound 6-31, 5-(5-Fluoro-2-methylphenoxymethyl)-6-[2-methoxy-4-(morpholin-4-ylcarbonyloxy)phenyl]-2,2,4-trimethyl-1,2-dihydroquinoline] | 45 | 86
9 | CCCC(=O)Oc1ccc(-c2ccc3c(c2COc2cc(F)ccc2C)C(C)=CC(C)(C)N3)c(OC)c1 [Compound 1-9, 6-(4-Butyryloxy-2-methoxyphenyl)-5-(5-fluoro-2-methylphenoxymethyl)-2,2,4-trimethyl-1,2-dihydroquinoline] | 31 | 79
10 | COc1cc(OS(=O)(=O)C(C)C)ccc1-c1ccc2c(c1COc1cc(F)ccc1C)C(C)=CC(C)(C)N2 [Compound 4-5, 5-(5-Fluoro-2-methylphenoxymethyl)-6-(4-isopropylsulfonyloxy-2-methoxyphenyl)-2,2,4-trimethyl-1,2-dihydroquinoline] | 38 | 90
11 | COc1cc(OC(=O)C(C)C)ccc1-c1ccc2c(c1COc1cc(F)ccc1C)C(C)=CC(C)(C)N2 [Compound 1-14, 5-(5-Fluoro-2-methylphenoxymethyl)-6-(4-isobutyryloxy-2-methoxyphenyl)-2,2,4-trimethyl-1,2-dihydroquinoline] | 46 | 79
12 | COc1cc(OC(=O)c2occc2C)ccc1-c1ccc2c(c1COc1cc(F)ccc1C)C(C)=CC(C)(C)N2 [Compound 1-57, 5-(5-Fluoro-2-methylphenoxymethyl)-6-[2-methoxy-4-(3-methylfuran-2-ylcarbonyloxy)phenyl]-2,2,4-trimethyl-1,2-dihydroquinoline] | – | 86
13 | COc1ccccc1NCc1c(-c2ccc(OC(=O)c3cccs3)cc2OC)ccc2c1C(C)=CC(C)(C)N2 [Compound 1-104, 5-(2-Methoxyphenylaminomethyl)-6-[2-methoxy-4-(thiophen-2-ylcarbonyloxy)phenyl]-2,2,4-trimethyl-1,2-dihydroquinoline] | – | 84
14 | COc1cc(OC(=O)C(C)(C)C)ccc1-c1ccc2c(c1COc1cc(F)ccc1C)C(C)=CC(C)(C)N2 [Compound 1-58, 6-(4-t-Butylcarbonyloxy-2-methoxyphenyl)-5-(5-fluoro-2-methylphenoxymethyl)-2,2,4-trimethyl-1,2-dihydroquinoline] | – | 76
15 | COc1cc(OC(=O)c2cccnc2OC)ccc1-c1ccc2c(c1COC(=O)c1ccc(C)s1)C(C)=CC(C)(C)N2 [Compound 1-166, 6-[2-Methoxy-4-(2-methoxypyridin-3-ylcarbonyloxy)phenyl]-5-(5-methylthiophen-2-ylcarbonyloxymethyl)-2,2,4-trimethyl-1,2-dihydroquinoline] | – | 91
16 | COc1cc(OC(=O)c2ccc(Cl)cc2)ccc1-c1ccc2c(c1COC(=O)c1ccc(C)s1)C(C)=CC(C)(C)N2 [Compound 1-141, 6-[4-(4-Chlorobenzoyloxy)-2-methoxyphenyl]-5-(5-methylthiophen-2-ylcarbonyloxymethyl)-2,2,4-trimethyl-1,2-dihydroquinoline] | – | 78
17 | CCN(CCN(C)C)C(=O)Oc1ccc(-c2ccc3c(c2COc2cc(F)ccc2C)C(C)=CC(C)(C)N3)c(OC)c1 [Compound 6-20, 6-[4-[N-(2-Dimethylaminoethyl)-N-ethylaminocarbonyloxy]-2-methoxyphenyl]-5-(5-fluoro-2-methylphenoxymethyl)-2,2,4-trimethyl-1,2-dihydroquinoline] | – | 79
18 | COc1cc(OC(=O)c2cccnc2C)ccc1-c1ccc2c(c1CNc1cc(F)ccc1C)C(C)=CC(C)(C)N2 [Compound 1-122, 5-(5-Fluoro-2-methylphenylaminomethyl)-6-[2-methoxy-4-(2-methylpyridin-3-ylcarbonyloxy)phenyl]-2,2,4-trimethyl-1,2-dihydroquinoline] | – | 89
19 | CCCCS(=O)(=O)Oc1ccc(-c2ccc3c(c2COc2cc(F)ccc2C)C(C)=CC(C)(C)N3)c(OC)c1 [Compound 4-6, 6-(4-Butylsulfonyloxy-2-methoxyphenyl)-5-(5-fluoro-2-methylphenoxymethyl)-2,2,4-trimethyl-1,2-dihydroquinoline] | – | 82
20 | COc1ccc(OC(=O)c2ccco2)cc1-c1ccc2c(c1COc1cc(F)ccc1C)C(C)=CC(C)(C)N2 [Compound 1-17, 5-(5-Fluoro-2-methylphenoxymethyl)-6-[5-(furan-2-ylcarbonyloxy)-2-methoxyphenyl]-2,2,4-trimethyl-1,2-dihydroquinoline] | 35 | 84
21 | COc1ccc([N+](=O)[O-])cc1OCc1c(-c2ccc(OC(=O)c3ccsc3)cc2OC)ccc2c1C(C)=CC(C)(C)N2 [Compound 1-81, 5-(2-Methoxy-5-nitrophenoxymethyl)-6-[2-methoxy-4-(thiophen-3-ylcarbonyloxy)phenyl]-2,2,4-trimethyl-1,2-dihydroquinoline] | – | 76
22 | COc1cc(OC(=O)c2ccccc2)ccc1-c1ccc2c(c1COC(=O)c1ccc(C)s1)C(C)=CC(C)(C)N2 [Compound 1-142, 6-(4-Benzoyloxy-2-methoxyphenyl)-5-(5-methylthiophen-2-ylcarbonyloxymethyl)-2,2,4-trimethyl-1,2-dihydroquinoline] | – | 97
